Measured values published in patent US20080194640A1, “Optically Active Tetrahydronaphthalene Derivative” (priority 2005, published 2008).
≈ marks a conversion by molar mass, not a printed value. One block for each compound: values may come before it.

What was measured:
[1] = Dissolution test (JP Dissolution Test Method 2, paddle method); format: physicochemical; conditions: JP second fluid 900 ml, paddle 50 rpm, 37° C., about 10 mg based on free form
Procedure: The compounds obtained in Examples 22, 24 and 25, free base•Form-I crystal, and the racemate of the compound of Example 3 were subjected to a dissolution test, and the dissolution rate was compared. According to this test method, the amount of dissolution relative to the content of each compound in the test solution is expressed in the dissolution rate (%), which was measured over time.
For the method of adding each compound, the compound (about 10 mg based on free form) was precisely weighed and directly added to a vessel. As the test solution, The Japanese Pharmacopoeia second fluid (900 ml) was used, and the test was performed according to The Japanese Pharmacopoeia Dissolution Test Method 2 (Paddle Method) at 50 rpm. The test temperature was 37° C. After the start of the test, solution for dissolution (10 ml) was taken at suitable times, and a test solution (10 ml) heated to 37° C. was soon carefully added for compensation. The collected solution for dissolution was passed through a filter (DISMIC 13HP PTFE (0.45 μm); Toyo Roshi Kaisha). The filtrate in the early stage (5 ml) was removed, the subsequent filtrate (500 μl) was precisely measured, and the dilution solution (water/acetonitrile/trifluoroacetic acid mixture=500:500:1, 500 μl) was accurately added to give a sample solution.
Separately, about 10 mg of the free base•Form-I crystal was precisely weighed, and a dilution solution (water/acetonitrile/trifluoroacetic acid mixture=500:500:1) was added to 50 ml sharp. This solution (2.5 ml) was precisely measured, and a dilution solution (water/acetonitrile/trifluoroacetic acid mixture=500:500:1) was added to 50 ml sharp. This was used as the standard solution of free base•Form-I crystal (10 μg/ml). The sample solution and the standard solution were measured under the HPLC conditions shown below, the peak areas AT and AS of the free base•Form-I crystal in each solution were measured, and the dissolution rate was determined by the following formula.
The nth dissolution rate (%) of free base•Form-I crystal=Wn/W100%×100 • W1: the first dissolution amount (mg) of free base•Form-I crystal
=(900×AT1)×WS/AS/1000 • Wn: the nth (n>1) dissolution amount (mg) of free base•Form-I crystal
={900×ATn+10×(AT1+AT2 . . . +ATn−1)}×WS/AS/1000 • W100%: cast amount (mg) of drug substance • Ws: collected amount (mg) of free base•Form-I crystal standard product • As: peak area of free base•Form-I crystal in standard solution • AT1: peak area of free base•Form-I crystal in sample solution by the first sampling • ATn: peak area of free base•Form-I crystal in sample solution by the nth sampling. • For racemate, the dissolution rate was calculated based on the total value of S form and R form. […]

[2] = Solubility test (Japanese Pharmacopoeia Solution 2); format: physicochemical; conditions: for solubility after 30 min: Japanese Pharmacopoeia Solution 2, 37° C., shaken 30 min
Procedure: An adequate amount of a sample was taken, and a test solution (The Japanese Pharmacopoeia Solution 2) was added to each to a concentration of about 1 mg/ml. The sample was dispersed by ultrasonication for 2 min, shaken at 37° C. for 30 min, and the solution was filtered through DISMIC13HP ([…]). The filtrate in the early stage (3 ml) was removed, the subsequent filtrate (500 μl) was precisely measured, and the dilution solution (water/acetonitrile/trifluoroacetic acid mixture=500:500:1, 500 μl) was accurately added to give a sample solution. The sample solution and the standard solution prepared in Experimental Example 5 were subjected to the measurement under the similar HPLC conditions as in Experimental Example 5.

[3] = Evaluation of biological availability (bioavailability) in rat; format: in vivo; conditions: for AUC: rat, fasted female SD rats, plasma
Procedure: Free base•Form-I crystal was administered to female SD rats fasted from the day before the experiment and the plasma concentration was measured under the following conditions. As a result, the areas under blood concentration-time curve (AUC) of the drug after intravenous administration and oral administration are as shown in Table 1.
• Dosing formulation: 0.5 mg/ml in aqueous physiological saline. • Dose: 1 mg/2 ml/kg • Administration method: bolus administration from the tail vein Collection of blood samples: About 0.1-0.2 mL of blood was taken from the cervical vein at 3 min, 10 min, 30 min, 1 hr, 2 hr, 4 hr and 6 hr after administration. The blood was centrifuged, and the plasma was separated.
• Dosing formulation: 2 mg/ml suspension adjusted by gradually adding aqueous hydroxypropylmethylcellulose solution to the compound of the present invention thoroughly triturated in an agate mortar. • Dose: 10 mg/5 ml/kg • Administration method: Forcible administration into the stomach • Collection of blood samples: About 0.1-0.2 mL of blood was taken from the cervical vein at 30 min, 1 hr, 2 hr, 4 hr, 6 hr, 8 hr and 24 hr after administration. The blood was centrifuged, and the plasma was separated.
The plasma concentration of the administered compound was measured by LC-MS/MS.
LC conditions • Column: Capcellpak C18 UG-120 (2.0φ mm×50 mm, S-5 μm, Shiseido Co., Ltd.) • Mobile phase: acetonitrile • Flow rate: 0.25 mL/min • Column temperature: room temperature • Auto sampler temperature set to: 25° C. • Gradient setting: • 0 min→0.6 min:25%→25% • 0.6 min→3.6 min:25%→75% • 3.6 min→6 min:75%→75% • 6 min→6.1 min:75%→25% • 6.1 min→9.5 min:25%→25% • MS/MS conditions • Ionization method: ESI • Capillary temperature: 350° C. • Sheath gas pressure: 80 psi • Spray voltage: 4.5 kV.
The plasma concentration of the racemate was measured by a similar method, and the biological availability was calculated and found to be 20%.

C5a receptor = biological target: T1, C5a receptor (Homo sapiens, UniProt P21730); assay: C5a receptor binding assay ([125I]-human C5a, human peripheral blood neutrophil); conditions: [125I]-C5a 200 pM, 4° C. for 2 hr, read-out: IC50 value, inhibition of [125I]-human C5a binding
T1 construct: neutrophil fraction was separated from human peripheral intravenous blood; endogenous in cells; host or cells: human peripheral blood neutrophils (whole cells)
T1 sequence (P21730 1-350): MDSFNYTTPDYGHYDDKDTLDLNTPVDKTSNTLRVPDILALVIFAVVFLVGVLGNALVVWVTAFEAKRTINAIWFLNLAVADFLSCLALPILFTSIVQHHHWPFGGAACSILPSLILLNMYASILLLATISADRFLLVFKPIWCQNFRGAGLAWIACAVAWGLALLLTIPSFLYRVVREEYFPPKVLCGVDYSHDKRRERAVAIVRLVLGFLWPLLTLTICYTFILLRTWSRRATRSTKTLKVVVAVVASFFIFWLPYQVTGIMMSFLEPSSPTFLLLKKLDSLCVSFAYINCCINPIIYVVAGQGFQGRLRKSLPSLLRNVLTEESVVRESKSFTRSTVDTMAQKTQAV
Procedure: The C5a receptor binding inhibitory action of C5a and the test compound was evaluated by a receptor binding assay comprising of human peripheral blood neutrophil, which expresses the C5a receptor, and [^125I]-human C5a (Amersham Pharmacia Biotech) in a MultiScreen (MILLIPORE). First, neutrophil fraction was separated from human peripheral intravenous blood using lympholyte-poly (Cedarlane), and suspended in a Binding buffer [50 mM HEPES, 1 mM CaCl2, 5 mM MgCl2, 0.5% bovine albumin (BSA, SIGMA), 0.02% NaN3 (pH 7.2)]. The binding assay was started by the addition of 1×10^5 cells/50 μL neutrophil suspension, 25 μL of a test compound solution (obtained by dissolving the test compound in N,N-dimethylformamide to a final concentration of 10 mmol/L and diluting with binding buffer), and 25 μL of [^125I]-C5a solution (final concentration 200 pM), to each well of the MultiScreen. […] After drying the MultiScreen, the radioactivity on the filter was measured using a gamma counter.
The rate of inhibition (% inhibition) of C5a binding by the test compound was calculated by the following formula using the count value obtained without addition of the test compound as Total, the count value obtained with addition of non-labeled C5a as Non, and the count value obtained with addition of the test compound as Test. […]

[4] = tested on: collagen-induced arthritis; assay: Collagen-induced arthritis in monkey (articular swelling score); format: in vivo, cynomolgus monkey
[5] = tested on: C5a stimulated neutrophil; assay: Production of reactive oxygen species in C5a-stimulated neutrophil; format: cell-based; conditions: human neutrophil, C5a 3 nmol/L, luminol luminescence, 37° C.; read-out: IC50 value, inhibition of production of reactive oxygen species in C5a stimulated neutrophil
Procedure: A neutrophil fraction was separately taken from human peripheral venous blood using Lympholyte-poly (Cedarlane), and suspended in Hank's Balanced Salt Solution (HBSS, GIBCO BRL) containing 1% fetal bovine serum (FBS) and 1 mmol/L luminol (Wako Pure Chemical Industries, Ltd.). Reactive oxygen species was measured using a luminometer (MicroLumat, Berthold) for 96-well plate. […] Then, 25 μL of C5a (final concentration 3 nmol/L) was added and luminescence produced by the reaction of the luminol and the reactive oxygen species was measured with the lapse of time for 15 min. The rate of inhibition (% inhibition) of the production of reactive oxygen species in C5a stimulated neutrophil by the test compound was calculated by the following formula, wherein the peak value of the production of reactive oxygen species derived by C5a without addition of the test compound is Max, the peak value of the production of reactive oxygen species without addition of the test compound and without C5a stimulation is Min, and the peak value of the production of reactive oxygen species derived by C5a with the addition of the test compound is Test. […]

SMILES: CCn1cc(CN(C(=O)[C@H]2CCCc3c(O)cccc32)c2ccc(C(C)C)nc2)cn1.Cl [Example 24, (1S)-(−)-N-[(1-ethyl-1H-pyrazol-4-yl)methyl]-5-hydroxy-N-(6-isopropylpyridin-3-yl)-1,2,3,4-tetrahydronaphthalene-1-carboxamide monohydrochloride]
dissolution rate (comparison) [1]: faster than that of the free base•Form-I crystal

solubility relative to free base•Form-I crystal ([2]; JP Solution 2, 37° C., 30 min): 2.5 fold
solubility relative to the racemate ([2]; JP Solution 2, 37° C., 30 min): about 5 fold
solubility after 30 min [2]: 165 µg/mL (≈ 394 µM)
SMILES: CCn1cc(CN(C(=O)[C@H]2CCCc3c(O)cccc32)c2ccc(C(C)C)nc2)cn1 [Example 23, (1S)-(−)-N-[(1-ethyl-1H-pyrazol-4-yl)methyl]-5-hydroxy-N-(6-isopropylpyridin-3-yl)-1,2,3,4-tetrahydronaphthalene-1-carboxamide]

SMILES: CCn1cc(CN(C(=O)[C@H]2CCCc3c(O)cccc32)c2ccc(C(C)C)nc2)cn1 [Example 22, (1S)-(−)-N-[(1-ethyl-1H-pyrazol-4-yl)methyl]-5-hydroxy-N-(6-isopropylpyridin-3-yl)-1,2,3,4-tetrahydronaphthalene-1-carboxamide]
dissolution rate (comparison) [1]: faster than that of the free base•Form-I crystal

biological availability ([3]; female SD rats, oral 10 mg/kg vs intravenous 1 mg/kg): 62%
AUC ([3]; intravenous administration 1 mg/kg): 264 ng·h/mL
AUC ([3]; oral administration 10 mg/kg): 1640 ng·h/mL
solubility after 30 min ([2]; listed as free base•Form-I crystal): 66 µg/mL (≈ 158 µM)
IC50 (C5a receptor): 10 nM
IC50 [5]: 2.8 nM
SMILES: CCn1cc(CN(C(=O)[C@H]2CCCc3c(O)cccc32)c2ccc(C(C)C)nc2)cn1 [Example 3, (1S)-(−)-N-[(1-ethyl-1H-pyrazol-4-yl)methyl]-5-hydroxy-N-(6-isopropylpyridin-3-yl)-1,2,3,4-tetrahydronaphthalene-1-carboxamide]
articular swelling score, average ([4]; before administration, cynomolgus monkey, 10 per group, control group average 49): 49
articular swelling score, average ([4]; day 14 of administration, oral, day 36 to day 50, control group average 82): 61
effect on aggravation of arthritis ([4]; oral administration day 36 to day 50, cynomolgus monkey): significantly suppressed aggravation of arthritis

SMILES: Br.CCn1cc(CN(C(=O)[C@H]2CCCc3c(O)cccc32)c2ccc(C(C)C)nc2)cn1 [Example 25, (1S)-(−)-N-[(1-ethyl-1H-pyrazol-4-yl)methyl]-5-hydroxy-N-(6-isopropylpyridin-3-yl)-1,2,3,4-tetrahydronaphthalene-1-carboxamide monohydrobromide]
dissolution rate (comparison) [1]: faster than that of the free base•Form-I crystal
